Experimental data reported in ChEMBL document CHEMBL5724914, “Linking interpersonal differences in gut microbiota composition and drug biotransformation activity” (2024).

Key:
[1] = The drug is tested on Z-026 corresponding to metagenome with ENA study accession number: PRJEB37062 and ENA sample accession number: ERS12561825 for biotransformation under anaerobic condition. The drug concentrations were measured over 9 timepoints collected between 0 and 24 hours of incubation by liquid-chromatography-coupled mass spectrometry (LC–MS); details: 2 µM
[2] = The drug is tested on Z-014 corresponding to rat gut metagenome with ENA study accession number: PRJEB37062 and ENA sample accession number: ERS12561814 for biotransformation under anaerobic condition. The drug concentrations were measured over 9 timepoints collected between 0 and 24 hours of incubation by liquid-chromatography-coupled mass spectrometry (LC–MS); details: 2 µM
[3] = The drug is tested on Z-007 corresponding to rat gut metagenome with ENA study accession number: PRJEB37062 and ENA sample accession number: ERS12561807 for biotransformation under anaerobic condition. The drug concentrations were measured over 9 timepoints collected between 0 and 24 hours of incubation by liquid-chromatography-coupled mass spectrometry (LC–MS); details: 2 µM
[4] = The drug is tested on Z-001 corresponding to mouse gut metagenome with ENA study accession number: PRJEB37062 and ENA sample accession number: ERS12561801 for biotransformation under anaerobic condition. The drug concentrations were measured over 9 timepoints collected between 0 and 24 hours of incubation by liquid-chromatography-coupled mass spectrometry (LC–MS); details: 2 µM
[5] = The drug is tested on WLS-370 corresponding to human gut metagenome with ENA study accession number: PRJEB37062 and ENA sample accession number: ERS12561793 for biotransformation under anaerobic condition. The drug concentrations were measured over 9 timepoints collected between 0 and 24 hours of incubation by liquid-chromatography-coupled mass spectrometry (LC–MS); details: 2 µM
[6] = The drug is tested on WLS-086 corresponding to human gut metagenome with ENA study accession number: PRJEB37062 and ENA sample accession number: ERS12561752 for biotransformation under anaerobic condition. The drug concentrations were measured over 9 timepoints collected between 0 and 24 hours of incubation by liquid-chromatography-coupled mass spectrometry (LC–MS); details: 2 µM
[7] = The drug is tested on WLS-077 corresponding to human gut metagenome with ENA study accession number: PRJEB37062 and ENA sample accession number: ERS12561750 for biotransformation under anaerobic condition. The drug concentrations were measured over 9 timepoints collected between 0 and 24 hours of incubation by liquid-chromatography-coupled mass spectrometry (LC–MS); details: 2 µM
[8] = The drug is tested on WLS-052 corresponding to human gut metagenome with ENA study accession number: PRJEB37062 and ENA sample accession number: ERS12561747 for biotransformation under anaerobic condition. The drug concentrations were measured over 9 timepoints collected between 0 and 24 hours of incubation by liquid-chromatography-coupled mass spectrometry (LC–MS); details: 2 µM
[9] = The drug is tested on WLS-010 corresponding to human gut metagenome with ENA study accession number: PRJEB37062 and ENA sample accession number: ERS12561743 for biotransformation under anaerobic condition. The drug concentrations were measured over 9 timepoints collected between 0 and 24 hours of incubation by liquid-chromatography-coupled mass spectrometry (LC–MS); details: 2 µM
[10] = human gut metagenome, 24 h, 2 µM
[11] = human gut metagenome, 24 h, 2 µM; remark: listed apart in the source
[12] = human gut metagenome, 24 h, 2 µM; remark: listed apart in the source
[13] = human gut metagenome, 24 h, 2 µM; remark: listed apart in the source
[14] = human gut metagenome, 24 h, 2 µM; remark: listed apart in the source
[15] = human gut metagenome, 24 h, 2 µM; remark: listed apart in the source
[16] = human gut metagenome, 24 h, 2 µM; remark: listed apart in the source
[17] = human gut metagenome, 24 h, 2 µM; remark: listed apart in the source
[18] = human gut metagenome, 24 h, 2 µM; remark: listed apart in the source
[19] = human gut metagenome, 24 h, 2 µM; remark: listed apart in the source
[20] = human gut metagenome, 24 h, 2 µM; remark: listed apart in the source
Also: call rule not given here.

| Compound | Bacterial Biotransformation [1] | Bacterial Biotransformation [2] | Bacterial Biotransformation [3] | Bacterial Biotransformation [4] | Bacterial Biotransformation [5] | Bacterial Biotransformation [6] | Bacterial Biotransformation [7] | Bacterial Biotransformation [8] | Bacterial Biotransformation [9] | Bacterial Biotransformation [10] | Bacterial Biotransformation [11] | Bacterial Biotransformation [12] | Bacterial Biotransformation [13] | Bacterial Biotransformation [14] | Bacterial Biotransformation [15] | Bacterial Biotransformation [16] | Bacterial Biotransformation [17] | Bacterial Biotransformation [18] | Bacterial Biotransformation [19] | Bacterial Biotransformation [20] |
| --- | --- | --- | --- | --- | --- | --- | --- | --- | --- | --- | --- | --- | --- | --- | --- | --- | --- | --- | --- | --- |
| CC(C)(C)NCC(O)c1cc(Cl)c(N)c(Cl)c1 (stereo not given) [CLENBUTEROL] | Compound NOT metabolized | Compound NOT metabolized | Compound NOT metabolized | Compound NOT metabolized | Compound NOT metabolized | Compound NOT metabolized | Compound NOT metabolized | Compound NOT metabolized | Compound NOT metabolized | Compound NOT metabolized | Compound NOT metabolized | Compound NOT metabolized | Compound NOT metabolized | Compound NOT metabolized | Compound NOT metabolized | Compound NOT metabolized | Compound NOT metabolized | Compound NOT metabolized | Compound NOT metabolized | Compound NOT metabolized |
| C[N+]12CCC(CC1)C(OC(=O)C(O)(c1ccccc1)c1ccccc1)C2.[Br-] (stereo not given) [CLIDINIUM BROMIDE] | Compound NOT metabolized | Compound NOT metabolized | Compound NOT metabolized | Compound metabolized | Compound metabolized | Compound metabolized | Compound NOT metabolized | Compound metabolized | Compound NOT metabolized | Compound NOT metabolized | Compound NOT metabolized | Compound metabolized | Compound metabolized | Compound metabolized | Compound NOT metabolized | Compound metabolized | Compound NOT metabolized | Compound metabolized | Compound NOT metabolized | Compound metabolized |
| Clc1cccc(Cl)c1N=C1NCCN1 [CLONIDINE] | Compound NOT metabolized | Compound NOT metabolized | Compound NOT metabolized | Compound metabolized | Compound NOT metabolized | Compound metabolized | Compound NOT metabolized | Compound NOT metabolized | Compound metabolized | Compound NOT metabolized | Compound NOT metabolized | Compound NOT metabolized | Compound metabolized | Compound metabolized | Compound NOT metabolized | Compound metabolized | Compound NOT metabolized | Compound metabolized | Compound NOT metabolized | Compound metabolized |
| COC(=O)[C@H](c1ccccc1Cl)N1CCc2sccc2C1.O=S(=O)(O)O [CLOPIDOGREL BISULFATE] | Compound metabolized | Compound NOT metabolized | Compound NOT metabolized | Compound metabolized | Compound metabolized | Compound metabolized | Compound metabolized | Compound metabolized | Compound metabolized | Compound metabolized | Compound metabolized | Compound metabolized | Compound metabolized | Compound metabolized | Compound metabolized | Compound metabolized | Compound metabolized | Compound metabolized | Compound metabolized | Compound metabolized |
| O=P1(N(CCCl)CCCl)NCCCO1 (stereo not given) [CYCLOPHOSPHAMIDE ANHYDROUS] | Compound NOT metabolized | Compound NOT metabolized | Compound NOT metabolized | Compound NOT metabolized | Compound NOT metabolized | Compound metabolized | Compound NOT metabolized | Compound NOT metabolized | Compound NOT metabolized | Compound NOT metabolized | Compound NOT metabolized | Compound NOT metabolized | Compound metabolized | Compound metabolized | Compound NOT metabolized | Compound metabolized | Compound metabolized | Compound metabolized | Compound NOT metabolized | Compound metabolized |
